89 compounds from ChEMBL document CHEMBL1157539, “Thousands of chemical starting points for antimalarial lead identification” (Nature, 2010) can be followed below.

The experiment has as its system Plasmodium falciparum. Put plainly: GSK_TCMDC: Inhibition of Plasmodium falciparum 3D7 in whole erythrocytes, using parasite LDH activity as an index of growth. In kind it is functional, organism-based. Conditions: Plasmodium falciparum, 3D7.
As for `COc1ccc2nc(C)cc(N/N=C/c3cccc([N+](=O)[O-])c3)c2c1`, the XC50 worked out at 725 nM.

In the case of `CCN(CC)CCN(Cc1ccc(-c2ccc(C(F)(F)F)cc2)cc1)C(=O)Cn1c(CCc2c(F)cc(F)cc2F)nc(=O)c2ccccc21`, the XC50 was found to be 1040 nM. Compound `c1ccc2c(NCCCCCCNc3c4ccccc4nc4ccccc34)c3ccccc3nc2c1` had an XC50 of 753 nM. As for `O=C(/C=C/c1ccc(Cl)c(Cl)c1)NCCCCCN1CCC(C(=O)Nc2ccc(Cl)c(Cl)c2)CC1`, the XC50 stood at 637 nM. `COc1cc2c(=O)c(Cc3ccc(Cl)cc3)c(C)[nH]c2cc1F` displayed an XC50 of 1160 nM. With `COc1ccc2nccc([C@@H](O)CN3CCC(NCCOc4cccc(C(F)(F)F)c4Cl)CC3)c2c1` the figure was 154 nM; with `CCCC(CNCc1ccccc1)CNc1cc(=O)c2ccccc2[nH]1` (centres undefined), 1020 nM; with `O=C(c1ccc([N+](=O)[O-])o1)N1CCN(c2ccccc2)CC1`, 40 nM.

The compound `CC(O)C1CCCCN1C(=O)c1cccc(-c2cccc(-c3nc4cc(F)ccc4[nH]3)c2)c1` (centres undefined) came in with an XC50 of 536 nM. The compound `CCCCCC(C)C(C)c1cc(O)c2c(c1)OC(C)(C)CC2=Cc1ccncc1` (centres undefined) returned an XC50 of 213 nM. The result for `CCOc1ccc(-c2nonc2NC(=O)c2ccc(OC)cc2)cc1OCC` reads 822 nM; that for `CNc1cc(-c2ccc3ccnc(N)c3c2)nc(N)n1`, 119 nM; that for `CN(C)CC(=O)Nc1cccc(Nc2nccc(NCC(O)c3ccccc3)n2)c1` (centres undefined), 983 nM. The result for `CCN(CC)CCNC(=O)c1ccc(Nc2ncc([N+](=O)[O-])c(Nc3ccccc3OC)n2)cc1` reads 144 nM. The result for `O=C(/C=C/c1ccc(Cl)c(Cl)c1)N1CCC(CCN2CCc3[nH]c4ccccc4c3C2)CC1` reads 886 nM. Take `CCCCNc1nc(NCCCC)c2c(C)c(Cc3ccccc3)c(NCCCC)nc2n1`: the XC50 stood at 889 nM.

As for `CN(C)c1ccc(N2C(N)=NC(N)=NC23CCCC3)cc1`, the XC50 was 935 nM. Regarding `O=C(O)/C=C/c1cccc(F)c1F`, the XC50 came out at 96.1 nM. In turn, `COc1ccc2nccc(N3CCC(O)(CCNCc4ccc5c(n4)NC(=O)CS5)CC3)c2n1` had an XC50 of 648 nM. The result for `O=C(Nc1ccc(C(=O)Nc2ccc(C3=NCCN3)cc2)cc1)Nc1ccc(C2=NCCN2)cc1` reads 180 nM. The result for `Fc1ccc2[nH]c(-c3ccccc3)nc2c1CN1CCC(N2CCCC2)CC1` reads 717 nM. The result for `Clc1ccc2c(NN=Cc3cccnc3)ccnc2c1` reads 696 nM.

Regarding `O=C(Nc1ccc(OC(F)(F)F)cc1)Nc1ccc([N+](=O)[O-])cc1`, the XC50 is 878 nM. Compound `O=C(/C=C/c1ccccc1Cl)Nc1ccc(Br)c(OCCN2CCCCC2)c1` showed an XC50 of 168 nM. In the case of `CC(CCON1C(N)=NC(N)=NC1(C)C)c1ccc(Cl)cc1` (centres undefined), the XC50 was 3.2 nM.

`CN(C)CCCOc1cccc(NC(=O)Nc2ccc(-c3ccccc3)cc2)c1` yielded an XC50 of 868 nM.

Regarding `CC(Cc1ccc(OCCCCOc2ccccc2)cc1)NCCc1ccc(Oc2ccccc2)cc1` (centres undefined), the XC50 came out at 812 nM. As to `CC1(C)NC(N)=NC(=N)N1OCCNCc1ccc(Cl)cc1`, the XC50 was 160 nM.

Turning to `CCCc1cc(Cc2cnc(N)nc2N)cc(CCC)c1OCCCCC(=O)OC`, the XC50 was determined as 41.9 nM. In the case of `Nc1cc(-c2ccc(Br)cc2O)nc2ccccc12`, the XC50 came out at 619 nM. With `CCCCCN1CCCC1CNS(=O)(=O)c1ccc(C(=O)Nc2ccc(C(F)(F)F)cc2)cc1` (centres undefined), the XC50 stood at 838 nM.

Turning to `O=C(C=Cc1ccc(Cl)c(Cl)c1)NCCCCCN1CCC(c2n[nH]c3ccccc23)CC1`, the XC50 stood at 638 nM. Take `CN1CCN(CCNc2c3ccccc3nc3ccc4ccccc4c23)CC1`: the XC50 came out at 534 nM. Compound `COc1ccc2nccc(NC(=O)C3CCC(NCc4cnc(SC)c([N+](=O)[O-])c4)CC3)c2n1` (centres undefined) had an XC50 of 927 nM. In turn, `Oc1ccc(Cl)cc1Nc1nc(C(F)(F)F)nc2ccccc12` had an XC50 of 938 nM. With `Cc1cc(NCC2CCN(CC3CCCCC3)C2)nc(Nc2ccc(Br)cc2)n1` (centres undefined) the figure was 879 nM. `CCOc1cc(C(=O)NCCCN2CCN(c3cccc(Cl)c3)CC2)ccc1-c1nc2cc(Cl)c(F)cc2[nH]1` yielded an XC50 of 866 nM. Compound `O=C(/C=C/c1ccc(Cl)c(Cl)c1)NCCCCCN1CCC(NS(=O)(=O)c2cc(Cl)cc(Cl)c2)CC1` registered an XC50 of 1240 nM. The result for `N=C(NC1CC1)c1ccc2[nH]c(CCCCCc3nc4cc(C(=N)NC5CC5)ccc4[nH]3)nc2c1` reads 934 nM. In turn, `COc1ccc(CN2CCCN(Cc3cccc(NC(=O)c4ccc(-c5ccccc5)cc4)c3)CC2)cc1` gave an XC50 of 943 nM. `CC(=O)c1ccc(NC(=O)Nc2ccc3nccc(N4CCN(C)CC4)c3c2)cc1` had an XC50 of 432 nM.

For the compound `CN(CCCCNC(=O)/C=C/c1ccccc1)C1CC2(CCN(C(=O)OC(C)(C)C)CC2)c2ccccc21` (centres undefined), the XC50 was 1140 nM. Consider `O=C(N[C@@H](CC1CCCCC1)C(=O)NCc1cccc(C(F)(F)F)c1)c1ccc(O)c(-c2ccc(Cl)c(Cl)c2)c1`, for which the XC50 turned out to be 224 nM. For the compound `COc1c(C(=O)NC2CCN(Cc3ccccc3)C2)cnc2ccccc12` (centres undefined), the XC50 was determined as 956 nM. In turn, `c1cc(-c2ccc(CNC3CC3)cc2)cc(-c2nc3ccccc3[nH]2)c1` returned an XC50 of 1660 nM. On to `COc1ccccc1CCNc1nc(C)cc(N[C@@H](Cc2ccccc2)C(=O)NCCCOC(C)C)n1`, for which the XC50 turned out to be 865 nM. With `N=C(N)NN=CC(=O)Nc1cc([N+](=O)[O-])cc([N+](=O)[O-])c1` the figure was 628 nM; with `COc1ccc(C2C(C(=O)Nc3cc(Cl)c(OC)cc3OC)c3ccccc3C(=O)N2C)cc1` (centres undefined), 820 nM.

In turn, `Cc1ccccc1Cn1ccc2c3c(N)nc(N)nc3ccc21` returned an XC50 of 3.2 nM. `Oc1ccc(CCNc2nc(NCc3ccccc3-c3ccc(F)cc3)nc(N3CCNCC3)n2)cc1`: the XC50 worked out at 1070 nM. Regarding `CCOC(=O)c1ccc(NC(=O)c2ccccc2C(=O)O)cc1`, the XC50 came to 922 nM. `O=C(Nc1ccc(F)cc1)c1cnc(N2CCN(c3ccncc3)CC2)c(Cl)c1`: the XC50 is 735 nM.

Regarding `COc1ccc(Cn2c(=O)[nH]c3cc(C(=O)NC4CCN(Cc5ccccc5)CC4)ccc3c2=O)cc1`, the XC50 was 751 nM.

In the case of `O=C(Nc1cccc(CN2CCN(C(=O)c3ccccc3)CC2)c1)c1cccs1`, the XC50 worked out at 308 nM. Compound `Cc1cccc(Cn2c(Cc3ccccc3)nnc2Sc2ccc([N+](=O)[O-])c(C#N)c2)c1` had an XC50 of 1140 nM.

`CN(C)CCNCc1ccc(-c2ccc3c(Nc4ccc(Cl)cc4F)ccnc3c2)o1` came in with an XC50 of 208 nM.

As to `N=C(N)Nc1nc(-c2cccc(NC(=O)Cc3ccccc3)c2)cs1`, the XC50 is 1000 nM.

The compound `COc1ccc2nccc([C@@H](O)CN3CCC(NC(=O)c4[nH]c5ccccc5c4-c4ccccc4)CC3)c2c1` returned an XC50 of 904 nM. Regarding `O=C(/C=C/c1ccc(C(F)(F)F)cc1)NCCCCCN1CCCN(C(=O)Nc2ccc(Cl)cc2)CC1`, the XC50 was 869 nM. In the case of `CCCCCC(C)N/C(=N/c1cccc(Cl)c1Cl)Nc1ccc(C#N)cc1O` (centres undefined), the XC50 came out at 805 nM. The compound `Cc1cnc(N2CCN(CCCN3CCCC3)CC2)nc1Oc1ccc(-n2ccnc2)cc1` showed an XC50 of 898 nM. As for `CC1CCc2c(C(=O)N3CCc4ccccc4C3)csc2C1` (centres undefined), the XC50 came to 782 nM.

Take `CCCCCCCN1C2CCC1CC(CCOc1ccnc3ccc(OC)cc13)C2` (centres undefined): the XC50 is 389 nM. For the compound `CC1CC(NCCCNc2cc(=O)c3ccccc3[nH]2)c2c1cc(Cl)c(Cl)c2Cl` (centres undefined), the XC50 was determined as 837 nM. `CC[C@H]1CN2CC[C@H]1C[C@H]2C(O)c1cc(OC)nc2ccccc12` (some centres undefined) gave an XC50 of 141 nM. As to `CN1CCN(CCCN(Cc2cccc(-c3ccc(CNCCc4ccccc4)cc3)c2)C(=O)c2cccs2)CC1`, the XC50 stood at 716 nM. Turning to `Cc1ccc(Cn2nc(Cl)c(N3CCCNCC3)cc2=O)cc1NC(=O)Nc1ccc(-c2ccccc2)cc1`, the XC50 amounted to 667 nM. Consider `Cc1cnc2ccc(NS(=O)(=O)c3sc4ccc(Cl)cc4c3C)cc2c1N1CCNCC1`, for which the XC50 came to 807 nM. The result for `O=C(Nc1ccc(C(=O)N2CCN(CCN3CCN(c4cccc(C(F)(F)F)c4)CC3)CC2)cc1)c1ccc(C(F)(F)F)cc1` reads 690 nM; that for `c1ccc(CNCc2ccc(-c3ccc(-c4nc5ccccc5[nH]4)cc3)cc2)cc1`, 338 nM; that for `CC(C)n1ncc2c(C(=O)N3CCCc4ccccc43)cc(-c3ccccc3)nc21`, 601 nM. Compound `Cc1nc(C)c(-c2ccc(Sc3ccc(Cl)cc3)cc2)c(O)c1Br` registered an XC50 of 138 nM. With `N=C(N)Nc1nccc(NCc2ccccc2)n1` the figure was 895 nM. The result for `Nc1nc(Nc2cccc(Cl)c2)ncc1C(=O)NCc1ccncc1` reads 832 nM; that for `CC1(C)NC(N)=NC(=N)N1OCc1cc(Cl)cc2c1OCOC2`, 3.2 nM; that for `Cc1ccc(C(C)C)c(Oc2ccc3nc(N)nc(N)c3c2)c1`, 10.2 nM. For `CN1CCC(C(=O)Nc2ccc(-c3ccc(-c4nc5ccccc5[nH]4)s3)cc2)CC1`, the XC50 stood at 816 nM. The result for `CCCS(=O)(=O)N1CCC(CO)(Cc2ccccc2C(F)(F)F)CC1` reads 885 nM; that for `Cc1ccc2c(=NN=CC=Cc3ccccc3)cc(C)[nH]c2c1`, 1120 nM. As to `CC(C)N1CCN(c2ccc(OCCCN3CCN(c4cccc(Cl)c4Cl)CC3)c(C(F)(F)F)c2)CC1`, the XC50 amounted to 810 nM. With `CC(C)CNCc1cccc(-c2ccc(CN(C(=O)NCCc3ccccc3)C3CCN(Cc4ccccc4)CC3)cc2)c1` the figure was 764 nM; with `C=CCc1cc(C2CCN(CCCCNC(=O)c3ccc(-c4ccc(C#N)cc4)cc3)CC2)c(OCC(N)=O)c2c1CCCC2`, 799 nM.

As for `CCN(CCCN1CCCCC1)c1cc(C)nc(Nc2ccc(C)cc2C(F)(F)F)n1`, the XC50 was 544 nM. `N#Cc1cccc(NC(=O)Nc2ccc(-c3cccc(-c4nc5cc(F)ccc5[nH]4)c3)cc2)c1` registered an XC50 of 275 nM.

The compound `CC[C@H]1CN(C/C=C/c2ccc(OC)cc2)CC[C@H]1CCCc1ccnc2ccc(O)cc12` displayed an XC50 of 657 nM. For `Cc1ccc(F)cc1S(=O)(=O)N1CCCCC(c2ccc(C(F)(F)F)cc2)=N1`, the XC50 was 937 nM. On to `Cc1cc(O)cc2c(C3CCN(CC4CCC(NC(=O)/C=C/c5ccccc5Cl)CC4)CC3)c[nH]c12` (centres undefined), for which the XC50 worked out at 900 nM. With `CCC(C)CN1CCN(c2ccc(NC(=O)c3cccs3)cc2)CC1C` (centres undefined), the XC50 worked out at 655 nM. On to `Cc1cccc2nc(-c3ccc(-c4cccc(NCc5cn6cccnc6n5)c4)cc3)[nH]c12`, for which the XC50 was 787 nM.
